# Test results from patent US5661144A, “Cephem derivatives with 3-substituted bis heterocycles” (Meiji Seika Kabushiki Kaisha, priority 1994, dated 1997).
# Counter-ions that a name gives are not always drawn.
# What was measured:
# Experiment in all cases: Antibacterial activity (MIC), conventional two-fold dilution method
# Type in all cases: cell-based
# [1] = tested on: S. aureus 209P JC-1; details: Staphylococcus aureus, 10^6 CFU/ml, Medium N, 35° C., 18 to 20 hours
# Experimental: (§1) The test was carried out in the following manner: 10^6 CFU/ml of a bacterium to be tested was inoculated on a Medium N for disc susceptibility test (manufactured by Nissui Pharmaceutical Co., Ltd.), and cultivated at 35° C. for 18 to 20 hours.
# [2] = tested on: S. marcescens No.1; details: Serratia marcescens, 10^6 CFU/ml, Medium N, 35° C., 18 to 20 hours
# Experimental: as §1
# [3] = tested on: M. morganii 1510/S-1; details: Morganella morganii, 1510/S1, 10^6 CFU/ml, Medium N, 35° C., 18 to 20 hours
# Experimental: as §1
# [4] = tested on: K. pneumoniae PC1602; details: Klebsiella pneumoniae, 10^6 CFU/ml, Medium N, 35° C., 18 to 20 hours
# Experimental: as §1
# [5] = tested on: R. cloacae G-0008; details: 10^6 CFU/ml, Medium N, 35° C., 18 to 20 hours
# Experimental: as §1
# [6] = tested on: S. epidermidis ATCC14990; details: Staphylococcus epidermidis, 10^6 CFU/ml, Medium N, 35° C., 18 to 20 hours
# Experimental: as §1
# [7] = tested on: P. vulgaris GN76; details: Proteus vulgaris, 10^6 CFU/ml, Medium N, 35° C., 18 to 20 hours
# Experimental: as §1
# [8] = tested on: E. faecalis W-73; details: Enterococcus faecalis, W73, 10^6 CFU/ml, Medium N, 35° C., 18 to 20 hours
# Experimental: as §1
# [9] = tested on: P. auruginosa E-2; details: 10^6 CFU/ml, Medium N, 35° C., 18 to 20 hours
# Experimental: as §1
# [10] = tested on: C. freundii GN346/16; details: Citrobacter freundii, 10^6 CFU/ml, Medium N, 35° C., 18 to 20 hours
# Experimental: as §1
# [11] = tested on: E. coli NIHJ JC-2; details: Escherichia coli, NIHJJC2, 10^6 CFU/ml, Medium N, 35° C., 18 to 20 hours
# Experimental: as §1
SMILES,MIC [1] [µg/mL],MIC [2] [µg/mL],MIC [3] [µg/mL],MIC [4] [µg/mL],MIC [5] [µg/mL],MIC [6] [µg/mL],MIC [7] [µg/mL],MIC [8] [µg/mL],MIC [9] [µg/mL],MIC [10] [µg/mL],MIC [11] [µg/mL]
"Nc1nc(C(=NOCF)C(=O)NC2C(=O)N3C(C(=O)[O-])=C(C=CC[n+]4cc5sccn5c4)CSC23)ns1 [Example 1, (6R, 7R)-7-[(Z)-2-(5-amino-1,2,4-thiadiazol-3-yl)-2-fluoromethoxyiminoacetamido]-3-[3-(imidazo[5,1-b]-thiazolium-6-yl)-1-propenyl]-3-cephem-4-carboxylate(internal salt)]",0.2,0.05,< 0.025,0.05,0.05,0.1,0.1,12.5,12.5,0.05,< 0.025
"Cc1csc2c[n+](CC=CC3=C(C(=O)[O-])N4C(=O)C(NC(=O)C(=NOCF)c5nsc(N)n5)C4SC3)cn12 [Example 2, (6R, 7R)-7-[(Z)-2-(5-amino-1,2,4-thiadiazol-3-yl)-2-fluoromethoxyiminoacetamido]-3-[3-(3-methylimidazo[5,1-b]thiazolium-6-yl)-1-propenyl]-3-cephem-4-carboxylate (internal salt)]",0.2,0.05,< 0.025,0.05,0.05,0.2,0.1,12.5,25,0.05,0.05
"NC(=O)c1csc2c[n+](CC=CC3=C(C(=O)[O-])N4C(=O)C(NC(=O)C(=NOCF)c5nsc(N)n5)C4SC3)cn12 [Example 3, (6R, 7R)-7-[(Z)-2-(5-amino-1,2,4-thiadiazol-3-yl)-2-fluoromethoxyiminoacetamido]-3-[3-(3-carbamoylimidazo [5,1-b]thiazolium-6-yl)-1-propenyl]-3-cephem-4-carboxylate (internal salt)]",0.2,0.05,< 0.025,0.05,0.05,0.2,0.1,12.5,12.5,0.05,0.05
"Nc1nc(C(=NOCF)C(=O)NC2C(=O)N3C(C(=O)[O-])=C(C=CC[n+]4cc5sccn5c4CNC=O)CSC23)ns1 [Example 4, (6R, 7R)-7-[(Z)-2-(5-amino-1,2,4-thiadiazol-3-yl)-2-fluoromethoxyiminoacetamido]-3-[3-(5-formylaminomethylimidazo[5,1-b]thiazolium-6-yl]-1-propenyl]-3-cephem-4-carboxylate (internal salt)]",0.39,0.05,< 0.025,< 0.025,0.05,0.2,0.1,12.5,12.5,< 0.025,< 0.025
